# Reference: patent US11136615B2 (PROMEGA CORPORATION, priority 2017, dated 2021)
# Assays:
# Type in all cases: physicochemical
# [1] = Effect of ATT on luciferin stability (RP-HPLC); conditions: luciferins 1.0 mM, cationic detergent buffers pH 6.0, ATT 2.0 mM, 60° C., FIG. 3
# Procedure: Representative luciferins were reconstituted (at final concentration of 1.0 mM) in buffers containing various cationic detergents at pH 6.0, with or without ATT (Sigma, at a final concentration of 2.0 mM). The mixture was incubated at 60° C. Aliquots (20 μL) were taken out at various time points, diluted with H2O (180 μL), and analyzed by RP-HPLC. The percentages of the components were calculated based on UV absorbance at 330 nm.
# [2] = Effect of ATT on pro-luciferin stability (RP-HPLC); conditions: 2-hydroxyethyl ester of luciferin methyl ether 1.0 mM, PBS pH 7.4, 5% DMSO, ATT 8.0 mM, 37° C., FIG. 4
# Procedure: A stock solution of this compound in DMSO was added to PBS buffer at pH 7.4 to reach a final concentration at 1.0 mM and 5% DMSO. The mixture was incubated at 37° C., with or without ATT (Sigma, at a final concentration of 8.0 mM). Aliquots (20 μL) were taken out at various time points, diluted with H2O (180 μL), and analyzed by RP-HPLC. The percentages of the components were calculated based on UV absorbance at 330 nm.
# [3] = Effect of ATT on pro-luciferin stability with or without TCEP (RP-HPLC); conditions: 2-hydroxyethyl ester of luciferin methyl ether 1.0 mM, PBS pH 7.4, 5% DMSO, ATT 8.0 mM, TCEP 10 mM, 37° C., FIG. 5
# Procedure: ATT was also shown to be compatible with additives that are commonly used in bioluminescence systems. […] The mixture was incubated at 37° C., with or without ATT (Sigma, at a final concentration of 8.0 mM), and with or without TCEP (Thermo Scientific, at a final concentration of 10 mM).
# [4] = Thermal stability (T80) of Ultra-Glo™-based ATP detection reagent; conditions: 37° C.
# Procedure: (FIG. 6). T80 (the storage time during which the complete ATP detection reagent produced ≥80% of the light output from the freshly made reagent), a parameter reflecting reagent thermal stability, was improved by 1 fold at 37° C. after addition of ATT. In particular, the T80 value in the absence of ATT (0 mM) was 4 days, whereas the T80 value in the presence of ATT (3 mM) was 8 days (FIG. 6A). Further, the combination of dehydroluciferin and ATT as additives further improved the reagent stability, increasing the T80 value to 18 days (FIG. 6B, at 3 mM ATT with 0.3 mM corresponding dehydro-compound).
structure (smiles),measurement,setting,value
"Cc1n[nH]c(=S)[nH]c1=O [ATT, 6-methyl-3-thioxo-3,4-dihydro-1,2,4-triazin-5(2H)-one]",dehydroluciferin formation,[1],reduced
same,luciferin thermal stability,[1],improved
same,decomposition of the pro-luciferin compound,[2],slowed down
same,formation of the corresponding dehydroluciferin derivative,[2],reduced
same,stability of the pro-luciferin compound in the presence of TCEP,[3],improved
same,T80 (storage time with ≥80% of the light output of freshly made reagent),"[4]; ATT 3 mM in complete ATP detection reagent, 4 days in the absence of ATT, FIG. 6A",8 days
same,improvement of T80 after addition of ATT,[4]; complete ATP detection reagent,1 fold
